Source: publication PMC11662004 (Communications Chemistry, 2024)

Tests used:
[1] = target: T1, TET2CDΔLCI (Homo sapiens, UniProt Q6N021); test: Continuous reaction monitoring (1H NMR), 2OG decarboxylation; type: biochemical
T1 construct: FLAG-[thrombin cleavage site]-SUMO (N); made in house; host or cells: E. coli
Description: Double-stranded DNA oligomers were added at a final concentration of 20 µM. Data plotted from two independent replicates (n = 2). Initial rates reported as the mean of two independent replicates (n = 2). TEXT PRINTED IN THE PICTURE: (c) No DNA: V0 (μM min^−1) NgTet1: 0.36; V0 (μM min^−1) TET2: 1.28; Relative V0 NgTet1: 1; Relative V0 TET2: 1 | (c) ^5HC DNA: V0 (μM min^−1) NgTet1: 1.30; V0 (μM min^−1) TET2: 6.34; Relative V0 NgTet1: 3.6; Relative V0 TET2: 5.0 | (c) AT DNA: V0 (μM min^−1) NgTet1: 0.82; V0 (μM min^−1) TET2: 5.78; Relative V0 NgTet1: 2.3; Relative V0 TET2: 4.5 | (c) ^5mC DNA: V0 (μM min^−1) NgTet1: 1.52; V0 (μM min^−1) TET2: 6.79; Relative V0 NgTet1: 4.2; Relative V0 TET2: 5.3
All ^1H NMR spectra were recorded at 25 °C using D2O as a reference for internal deuterium lock on a Bruker Avance III 700 MHz equipped with an inverse TCI cryoprobe in 3 or 5 mm diameter tubes with a total sample volume of 160 or 565 μL, respectively. The water signal was reduced using Perfect Echo excitation sculpting suppression. Chemical shifts are reported in ppm relative to D2O (δH = 4.70 ppm).
Spectrometer settings were determined using a control sample containing all reaction components excluding enzyme. TET enzyme was added to an identical sample, and the resulting assay mixture was transferred to an NMR tube before deposition into the instrument. […] Data acquisition was started following a brief spectrometer setting optimisation (up to 200 s delay between enzyme addition and data acquisition); 8–32 scans were accumulated for a single spectrum, corresponding to 65–179 s of acquisition time. Spectrum recordings were carried out consecutively without delay. Data were processed using automated routines on MestReNova v14.2.0; signals of interest were integrated with absolute intensity scaling. ^1H NMR time courses reported in figures are representative results from two or three independent replicates.

[2] = target: T1, TET2CDΔLCI; test: AlphaScreen competition assay with biotinylated 5mC dsDNA; type: binding; details: 12.5 nM TET2CDΔLCI, 12.5 nM 5mC dsDNA
Description: AlphaScreen™ Histidine (Nickel Chelate) Detection Kit was used to evaluate displacement of […] (^5mC dsDNA)[33],[34]. Competitor DNA oligomers in assay buffer were manually dispensed onto 384-well ProxiPlates (5 μL) in a 2-fold dilution series. His6-tagged NgTet1 or TET2CDΔLCI in assay buffer was added (5 μL), and the mixture was pre-incubated with the competitor DNA at room temperature for 10 min. Cofactors and biotinylated ^5mC dsDNA in assay buffer were added (5 μL), and the mixture was further incubated at room temperature for 10 min. A mixture of AlphaScreen beads (1:62.5 dilution) in assay buffer was added (5 μL), and the full mixture was incubated at room temperature for 1 h. The final mixtures (20 μL) contained 100 nM NgTet1 (50 nM ^5mC dsDNA) or 12.5 nM TET2CDΔLCI (12.5 nM ^5mC dsDNA), 50 μM sodium L-ascorbate, 5 μM (NH4)2Fe(SO4)2, and 5 μM disodium NOG in assay buffer (50 mM HEPES [pH 7.3], 150 mM NaCl, 0.1% v/v BSA, 0.01% v/v Tween® 20). For the assay interference counter screen, His6-tagged TET protein and biotinylated ^5mC dsDNA were replaced with 1.6 nM biotinylated His6 peptide. Chemiluminescence was measured on a PHERAstar FS/FSX (BMG Labtech) equipped with an AlphaScreen 680 570 module. All AlphaScreen bead manipulations were performed under subdued lighting. Inhibition data was normalised to reactions containing no competitor and fitted using “log(inhibitor) vs. response - Variable slope (four parameters)” non-linear regression model on GraphPad Prism 5. […]
Fig. S5 TETs bind to DNA in a sequence- and modification-independent manner. A binding assay between a biotinylated 5mC dsDNA oligomer and His6-tagged TET was developed using AlphaScreen Histidine (Nickel Chelate) assay. […] Conditions: a 100 nM NgTet1 (50 nM 5mC dsDNA), b 12.5 nM TET2CDΔLCI (12.5 nM 5mC dsDNA), c 1.6 nM biotinylated His6 peptide. Each assay was supplemented with 50 μM sodium L-ascorbate, 5 μM (NH4)2Fe(SO4)2, and 5 μM disodium NOG. Data shown as the mean of three to four experimental replicates (n = 3–4; mean ± SD); tabulated data reported as the mean of two independent replicates (n = 2).

“AT DNA: double-stranded self-complementary 5'-ACC ACA TGT GGT-3', CpG replaced by ApT (DNA ACCACATGTGGT; DNA, backbone and methylation of C not given here; self-complementary duplex)” was tested, and the “V0 TET2” value ([1]; 20 µM DNA, 100 μM 2OG, 5 μM TET2CDΔLCI) was 5.78 µM/min, the “succinate” value ([1]; n = 1, time (min) 5HC DNA 5.78333, AT DNA 5.73333, 5mC DNA 5.58333) was 39.5956 µM and the “succinate” value ([1]; n = 1, time (min) 5HC DNA 8.86667, AT DNA 8.81667, 5mC DNA 8.65) was 49.5065 µM. For the same sequence, the “succinate” value ([1]; n = 1, time (min) 5HC DNA 11.95, AT DNA 11.8833, 5mC DNA 11.7333) was 54.2458 µM, the “succinate” value ([1]; n = 1, time (min) 5HC DNA 15.0333, AT DNA 14.9667, 5mC DNA 14.8167) was 57.9674 µM and the “succinate” value ([1]; n = 1, time (min) 5HC DNA 18.1167, AT DNA 18.05, 5mC DNA 17.9) was 59.2828 µM. The “succinate” value ([1]; n = 1, time (min) 5HC DNA 21.2333, AT DNA 21.1333, 5mC DNA 21) was 62.1944 µM, the “succinate” value ([1]; n = 1, time (min) 5HC DNA 24.3333, AT DNA 24.2167, 5mC DNA 24.0667) was 62.9572 µM and the “succinate” value ([1]; n = 1, time (min) 5HC DNA 27.4167, AT DNA 27.3, 5mC DNA 27.15) was 64.7984 µM. The “succinate” value ([1]; n = 1, time (min) 5HC DNA 30.55, AT DNA 30.3833, 5mC DNA 30.2333) was 64.7023 µM, the “succinate” value ([1]; n = 1, time (min) 5HC DNA 33.65, AT DNA 33.4667, 5mC DNA 33.3167) was 65.163 µM and the “succinate” value ([1]; n = 1, time (min) 5HC DNA 36.7333, AT DNA 36.5333, 5mC DNA 36.4) was 66.9776 µM. For the same sequence, the “succinate” value ([1]; n = 1, time (min) 5HC DNA 39.8333, AT DNA 39.6167, 5mC DNA 39.4833) was 66.6376 µM, the “succinate” value ([1]; n = 1, time (min) 5HC DNA 42.9, AT DNA 42.7, 5mC DNA 42.5667) was 66.8738 µM and the “succinate” value ([1]; n = 1, time (min) 5HC DNA 46, AT DNA 45.7833, 5mC DNA 45.6667) was 68.072 µM. For the same sequence, the “succinate” value ([1]; n = 1, time (min) 5HC DNA 49.0833, AT DNA 48.8667, 5mC DNA 48.75) was 67.0651 µM, the “succinate” value ([1]; n = 1, time (min) 5HC DNA 52.1667, AT DNA 51.95, 5mC DNA 51.8333) was 67.7938 µM and the “succinate” value ([1]; n = 1, time (min) 5HC DNA 55.25, AT DNA 55.0333, 5mC DNA 54.9167) was 69.134 µM. For the same sequence, the “succinate” value ([1]; n = 1, time (min) 5HC DNA 58.3167, AT DNA 58.1167, 5mC DNA 58) was 67.5356 µM, the “succinate” value ([1]; n = 1, time (min) 5HC DNA 61.4, AT DNA 61.2667, 5mC DNA 61.1) was 68.2246 µM and the “succinate” value ([1]; n = 2, time (min) 5HC DNA 5.66667, AT DNA 5.66667, 5mC DNA 5.8) was 40.358 µM. For the same sequence, the “succinate” value ([1]; n = 2, time (min) 5HC DNA 8.75, AT DNA 8.75, 5mC DNA 8.88333) was 49.4783 µM, the “succinate” value ([1]; n = 2, time (min) 5HC DNA 11.8333, AT DNA 11.85, 5mC DNA 11.9667) was 54.4351 µM and the “succinate” value ([1]; n = 2, time (min) 5HC DNA 14.9167, AT DNA 14.9333, 5mC DNA 15.05) was 56.62 µM. The “succinate” value ([1]; n = 2, time (min) 5HC DNA 18.0167, AT DNA 18.0167, 5mC DNA 18.1167) was 59.0171 µM, the “succinate” value ([1]; n = 2, time (min) 5HC DNA 21.1, AT DNA 21.1, 5mC DNA 21.2) was 60.9868 µM and the “succinate” value ([1]; n = 2, time (min) 5HC DNA 24.1833, AT DNA 24.1667, 5mC DNA 24.2833) was 62.4531 µM. The “succinate” value ([1]; n = 2, time (min) 5HC DNA 27.25, AT DNA 27.25, 5mC DNA 27.3667) was 63.5112 µM, the “succinate” value ([1]; n = 2, time (min) 5HC DNA 30.3333, AT DNA 30.3333, 5mC DNA 30.45) was 64.7948 µM and the “succinate” value ([1]; n = 2, time (min) 5HC DNA 33.4167, AT DNA 33.4167, 5mC DNA 33.5333) was 64.9179 µM. For the same sequence, the “succinate” value ([1]; n = 2, time (min) 5HC DNA 36.5, AT DNA 36.5, 5mC DNA 36.6167) was 65.839 µM, the “succinate” value ([1]; n = 2, time (min) 5HC DNA 39.5833, AT DNA 39.5833, 5mC DNA 39.7) was 65.6357 µM and the “succinate” value ([1]; n = 2, time (min) 5HC DNA 42.6667, AT DNA 42.6667, 5mC DNA 42.7833) was 67.3494 µM. For the same sequence, the “succinate” value ([1]; n = 2, time (min) 5HC DNA 45.75, AT DNA 45.75, 5mC DNA 45.8667) was 68.1347 µM, the “succinate” value ([1]; n = 2, time (min) 5HC DNA 48.8333, AT DNA 48.8333, 5mC DNA 48.95) was 66.7934 µM and the “Relative V0 TET2” value ([1]; relative to reactions without DNA) was 4.5. For the same sequence, the IC50 [2] was 4.57 µM and the “competition pIC50 TET2CDΔLCI” value ([2]; n = 2) was 5.34.
